The values that follow come from patent US20240317722A1, “HETEROARYL-3-PIPERIDINEDIONE COMPOUND AND USE THEREOF” (Medshine Discovery Inc., priority 2021, published 2024).

A short description of data set [1]: Pharmacokinetics of compounds in mice. It counts as in vivo, C57BL/6N mice. Particulars: for bioavailability / clearance / Vd / half-life: male, C57BL/6N, mouse, plasma; for bioavailability: read-out: Bioavailability F; for Vd: read-out: Apparent volume of distribution; for half-life: read-out: Elimination half-life (converted). The text has this:
In this study, C57BL/6N male mice were selected as the test animals, and the LC/MS/MS method was used to quantitatively determine the drug concentration in the plasma of mice intravenously or orally administered the test compounds, so as to evaluate the pharmacokinetic profile of the test compounds in mice.
C57BL/6N mice (male, 20-30 g, 7-10 weeks old, Beijing Vital River).
A clear solution or suspension of the test compound was intravenously injected into C57BL/6N mice (fasted overnight) via tail or given to C57BL/6N mice (fasted overnight) by gavage. For intravenous injection administration, blood was collected from the cheek at 0 h (before administration) and 0.083, 0.25, 0.5, 1, 2, 4, 6, 8, and 24 h after administration. Each sample was collected about 0.05 mL. Heparin sodium was added to anti-coagulate. Plasma samples were collected and placed on wet ice, and centrifuged within 1 hour to separate the plasma (centrifugation conditions: 6000 g, 3 minutes, 2-8° C.). Blood samples were stored in a −80° C. refrigerator before analysis; For oral gavage administration, blood was collected from the cheek at 0 h (before administration) and 0.083, 0.25, 0.5, 1, 2, 4, 6, 8, 24 h after administration. Each sample was collected about 0.05 mL. Heparin sodium was added to anti-coagulate. Plasma samples were collected and placed on wet ice, and centrifuged within 1 hour to separate the plasma (centrifugation conditions: 6000 g, 3 minutes, 2-8° C.). Blood samples were stored in a −80° C. refrigerator before analysis. Through blood drug concentration data at different time points, Phoenix WinNonlin8.2.0 was used to calculate pharmacokinetic parameters, providing parameters such as AUC0-t, AUC0-∞, MRT0-∞, Cmax, Tmax, and T1/2, etc. and their mean and standard deviation.

The test system of data set [2] is NCI-H69. As to the kind of experiment: Anti-proliferative effect in NCI-H69 (CellTiter-Glo). It is filed as cell-based. Particulars: NCI-H69, 3 days; for pIC50: Homo sapiens, 72 h. The protocol:
This assay studied the inhibitory effect of the compounds on cell proliferation by detecting the effect of the test compounds on the in vitro activity of tumor cells NCI-H1581, DMS114, NCI-H69 and NCI-H526.
The tumor cell lines were cultured in an incubator at 37° C., 5% CO2 or 0% CO2 according to the above culture conditions. The cells were periodically passaged, and cells in logarithmic growth phase were taken for plating. • 2. Cell plating • (1). Cells were stained with trypan blue and viable cells were counted.
• (3). 100 μL of cell suspension was added to each well of the culture plate, and culture medium without cells was added to the blank control well. • (4). The plate was incubated overnight in an incubator at 37° C., 5% CO2 or 0% CO2, and 100% relative humidity. • 3. Preparation of compound stock solution
Preparation of 1000× compound stock solution: Compound was dissolved in DMSO to 10 mM, then a portion was taken out and diluted to 1000 times the highest acting concentration. The diluted stock solution was dispensed for later use. • 4. Preparation of 5× compound working solution and treatment of cells with compounds. The working solutions were prepared freshly at each time for use. • (1). Preparation of 5× compound working solution: 119.4 μL of cell culture medium was added to a 96-well plate with a V-shaped bottom. 96 μL of DMSO-cell culture medium mix solution (with DMSO content of 0.5%) was added to subsequent gradient wells. 0.6 μL of the compound from the 1000× compound stock solution was added to the cell culture medium in the 96-well plate, and mixed to uniform with a pipette. A pipette was used to draw 24 μL of the compound-cell culture medium mixture into subsequent wells, and the mixture was mixed well by a pipette each time. • (2). Dosing: 25 μL of 5× compound working solution was added to the cell culture plate. 25 μL of DMSO-cell culture medium mix solution (with DMSO content of 0.5%) was added to the vehicle control and blank control. • (3). The 96-well cell plate was placed back into the incubator and cultured for 3 days. • 5. CellTiter-Glo luminescence cell viability detection
The following steps were performed according to the instruction of Promega CellTiter-Glo luminescence cell viability detection kit (Promega-G7573). • (1). The CellTiter-Glo buffer was thawed and allowed to stand to reach room temperature; • (2). CellTiter-Glo substrate was allowed to stand to reach room temperature; • (3). 10 mL of CellTiter-Glo buffer was added to CellTiter-Glo substrate in a bottle to dissolve the substrate to formulate CellTiter-Glo working solution; • (4). […] The culture plates were left at room temperature for 10 minutes to stabilize the luminescence signal; • (9). The luminous signal was detected on the 2104 En Vision plate reader. • 6. […]
For orientation: ATP-based viability assays read luminescence as a measure of living cells.

Setting [3] is: administration by gavage, 10 mg/kg.

pIC50: −log10 of the molar value. Where two headings read alike, the source gives them in different places.

On to `COCCOc1cc(NC(=O)NCc2ccc3c(C4CCC(=O)NC4=O)coc3c2)cc(Cl)c1C` (centres unmarked) [WX005], for which, in data set [1] (setting [3]), the “Area under the plasma concentration-time curve (0-inf)” value (“Area” below) was 108.89 µM·h, the Peak concentration is 23.27 µM and the Time to peak was 1.00 h. In addition, in data set [1] (intravenous injection, 1 mg/kg), the “Area” value was 14.34 µM·h, the clearance amounted to 2.3 mL/min/kg, the Vd amounted to 0.35 L/kg and the half-life was 2.71 h. The bioavailability in data set [1] (PO 10 mg/kg vs IV 1 mg/kg) stood at 75.9%. In addition, in data set [2], the negative-log IC50 (pIC50) was 8.21 and the “Max. IR” value is 68.41%.
For the compound `COCCOc1cc(NC(=O)NCc2ccc3c(C4CCC(=O)NC4=O)noc3c2)cc(Cl)c1C` (centres unmarked) [WX013], in data set [1] (setting [3]), the “Area” value is 40.90 µM·h, the Peak concentration was determined as 3.06 µM and the Time to peak is recorded as 2.67 h. Besides, in data set [1] (intravenous injection, 2 mg/kg), the “Area” value amounted to 37.03 µM·h, the clearance was 1.84 mL/min/kg, the Vd came out at 0.44 L/kg and the half-life was 5.11 h. In addition, the bioavailability in data set [1] (PO 10 mg/kg vs IV 2 mg/kg) stood at 22.1%. In addition, in data set [2], the negative-log IC50 (pIC50) is 8.89 and the “Max. IR” value is 70.53%.

The bioavailability is dose-corrected exposure relative to a reference, in per cent. As a reminder, the clearance is the rate of elimination divided by the concentration. Read a high clearance as a high capacity for elimination. In general, half-life refers to the time needed for the level to fall by half in the phase considered. By pIC50 is commonly meant −log10 of the IC50, conventionally taken in molar units.
